Experimental data reported in ChEMBL document CHEMBL1201862, “PubChem BioAssay data set” (2004).
The source made the active and inactive calls. For most assays here, no stated cut-off is given here; in the data, actives have a measured EC50 and inactives only a lower limit.

How the values were obtained:
[1] = target: T1, Corticotropin-releasing factor receptor 2/Corticotropin-releasing factor-binding protein (Homo sapiens, UniProt P24387+Q13324); test: activators of CRF receptor 2 with binding protein – uHTS hits, confirmation (AID 602473); type: functional; settings: read-out: EC50_Mean
T1 sequence (Q13324 whole entry): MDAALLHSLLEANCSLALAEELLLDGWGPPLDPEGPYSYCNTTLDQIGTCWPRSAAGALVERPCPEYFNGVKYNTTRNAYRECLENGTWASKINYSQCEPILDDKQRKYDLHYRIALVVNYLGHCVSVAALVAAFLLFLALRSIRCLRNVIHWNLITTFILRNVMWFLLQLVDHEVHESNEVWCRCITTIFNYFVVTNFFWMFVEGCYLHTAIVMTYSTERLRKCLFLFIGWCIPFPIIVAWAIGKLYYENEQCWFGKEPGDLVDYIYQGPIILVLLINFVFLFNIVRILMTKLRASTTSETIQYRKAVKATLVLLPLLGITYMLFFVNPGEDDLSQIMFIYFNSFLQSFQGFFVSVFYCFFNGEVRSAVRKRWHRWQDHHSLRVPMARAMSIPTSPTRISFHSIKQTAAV
T1 sequence (P24387 whole entry): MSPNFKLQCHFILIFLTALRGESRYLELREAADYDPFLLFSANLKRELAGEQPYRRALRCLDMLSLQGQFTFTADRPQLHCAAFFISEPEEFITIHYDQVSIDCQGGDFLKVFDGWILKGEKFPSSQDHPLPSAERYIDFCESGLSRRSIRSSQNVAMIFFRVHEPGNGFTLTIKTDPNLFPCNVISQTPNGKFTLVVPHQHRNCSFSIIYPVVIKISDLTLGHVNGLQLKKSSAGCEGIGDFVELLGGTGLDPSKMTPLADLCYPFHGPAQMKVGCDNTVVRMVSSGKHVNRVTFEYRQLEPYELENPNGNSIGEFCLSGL

[2] = target: T1, Corticotropin-releasing factor receptor 2/Corticotropin-releasing factor-binding protein; test: Dose Response confirmation of uHTS hits for small molecule antagonists of the CRF-binding protein and CRF-R2 receptor complex.; type: functional; settings: read-out: IC50_Mean
[3] = target: T2, RNA-binding protein pos-1 (Caenorhabditis elegans, UniProt G5EF15); test: disruptors of C. elegans POS-1 RNA interaction – biochemical, fluorescence polarization, dose response (AID 1964);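 further: purified POS-1 fused to maltose binding protein made in E. coli; potency of compounds blocking POS-1 binding to fluorescent RNA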
T2 sequence (G5EF15 whole entry): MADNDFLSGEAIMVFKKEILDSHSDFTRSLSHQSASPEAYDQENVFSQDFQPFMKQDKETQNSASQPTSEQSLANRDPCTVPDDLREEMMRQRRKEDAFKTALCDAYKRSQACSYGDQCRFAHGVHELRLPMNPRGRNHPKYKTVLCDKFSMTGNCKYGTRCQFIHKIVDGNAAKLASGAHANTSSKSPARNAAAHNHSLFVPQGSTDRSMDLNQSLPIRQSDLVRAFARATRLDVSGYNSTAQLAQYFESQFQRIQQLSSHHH

[4] = target: T3, Zinc finger protein mex-5 (Caenorhabditis elegans, UniProt Q9XUB2); test: potency of MEX-5 RNA-binding blockers – biochemical, C. elegans, fluorescence polarization, dose response (AID 1960)
T3 sequence (Q9XUB2 whole entry): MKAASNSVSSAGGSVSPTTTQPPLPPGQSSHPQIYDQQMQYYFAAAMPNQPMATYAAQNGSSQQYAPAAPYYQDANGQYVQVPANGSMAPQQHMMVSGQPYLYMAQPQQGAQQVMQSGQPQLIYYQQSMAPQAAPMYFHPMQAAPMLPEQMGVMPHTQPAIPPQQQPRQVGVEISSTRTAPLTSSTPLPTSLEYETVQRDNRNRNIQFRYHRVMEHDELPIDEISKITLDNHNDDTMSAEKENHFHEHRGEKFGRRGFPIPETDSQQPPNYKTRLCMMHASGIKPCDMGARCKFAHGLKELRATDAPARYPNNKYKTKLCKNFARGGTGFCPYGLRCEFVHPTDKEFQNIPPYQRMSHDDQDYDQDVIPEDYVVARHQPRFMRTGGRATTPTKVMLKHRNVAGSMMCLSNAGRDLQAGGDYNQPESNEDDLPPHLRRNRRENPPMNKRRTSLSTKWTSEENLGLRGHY

[5] = viability of uninfected HEp-2 cells – cell-based, HTS, cytotoxicity control for RSV inhibitor project, dose response (AID 2410); type: functional; settings: human respiratory syncytial virus
[6] = target: T4, Heat shock factor protein 1 (Mus musculus, UniProt P38532); test: decrease of HSF1-responsive luciferase luminescence – cell-based, NIH3T3, dose retest, confirmation (AID 2382); type: functional;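 further: NIH3T3 fibroblasts with HSF1-driven luciferase reporter stressed by proteasome inhibitor MG132; luminescence from HSF1-driven luciferase expression after 8 hours of MG132 stress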
T4 sequence (P38532 whole entry): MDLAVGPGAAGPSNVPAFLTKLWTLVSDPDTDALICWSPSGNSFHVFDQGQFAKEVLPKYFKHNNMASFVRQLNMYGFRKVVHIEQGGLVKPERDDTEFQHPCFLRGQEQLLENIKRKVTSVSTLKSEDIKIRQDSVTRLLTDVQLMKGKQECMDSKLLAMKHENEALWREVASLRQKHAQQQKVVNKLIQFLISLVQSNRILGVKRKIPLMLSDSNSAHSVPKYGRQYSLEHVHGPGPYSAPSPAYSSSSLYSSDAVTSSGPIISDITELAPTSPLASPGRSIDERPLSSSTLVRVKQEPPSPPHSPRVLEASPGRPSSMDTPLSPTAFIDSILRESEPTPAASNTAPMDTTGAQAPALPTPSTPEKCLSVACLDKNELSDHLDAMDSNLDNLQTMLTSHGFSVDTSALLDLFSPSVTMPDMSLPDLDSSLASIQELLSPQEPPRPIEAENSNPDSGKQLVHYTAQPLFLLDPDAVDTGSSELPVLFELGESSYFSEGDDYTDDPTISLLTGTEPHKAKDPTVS

[7] = reduction of Shn3 3'UTR-driven luciferase in osteoblasts – cell-based, Clone20 osteoblasts, firefly luciferase, cherry-picked, dose response (AID 624132); type: functional;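 further: firefly luciferase luminescence from reporter carrying the Shn3 3'UTR in osteoblasts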

CCOP(=O)(OCC)C(Nc1cccc([N+](=O)[O-])c1)c1ccccc1 (stereo unspecified)
EC50 [1]: > 53 µM (inactive) | IC50 [2]: > 47.1 µM (inactive) | EC50 [3]: > 300 µM (not active) | EC50 [4]: > 300 µM (not active)

N#Cc1c(N)n(-c2cccc(C(=O)O)c2)c2nc3ccccc3nc12
EC50 [1]: 13.7 µM (active) | IC50 [2]: > 47.1 µM (inactive) | EC50 [3]: > 300 µM (not active) | EC50 [4]: > 300 µM (not active)

CC(Oc1ccc(Cl)cc1Cl)C(=O)Nc1cccc(O)c1 (stereo unspecified)
CC50 [5]: 27.2 µM (active)

O=C1N=C(Nc2cccc(O)c2)S/C1=C\c1cccc([N+](=O)[O-])c1
CC50 [5]: > 50 µM (active)

CCOC(=O)Nc1ccccc1C(=O)Nc1cc(C)cc(C)c1
EC50 [6]: > 195 µM (not active)

CCN(CC(=O)N1CCCC1)S(=O)(=O)c1ccc(F)cc1
EC50 [6]: > 195 µM (not active)

CCc1ccc(C2=NNC(=Nc3c(C)n(C)n(-c4ccccc4)c3=O)SC2)cc1
CC50 [5]: 20.1 µM (active)

CC1(C)C(=O)NCCN1C(=O)CSc1nccc(-c2ccc(Br)cc2)n1
CC50 [5]: 34.1 µM (active)

COc1ccc(N(C)C(=O)CN(C)S(=O)(=O)c2ccc3c(c2)c(=O)n(C)c(=O)n3C)c(OC)c1
EC50 [6]: 120 µM (active)

Cc1c(OCC(=O)NCC(O)c2ccccc2)ccc2c3c(c(=O)oc12)CCCC3 (stereo unspecified)
CC50 [5]: 48.5 µM (active)

CCN(CC)C(=O)C1CCCN(c2ccc([N+](=O)[O-])cc2[N+](=O)[O-])C1 (stereo unspecified)
AC50 [7]: 52.4 µM (active)

Cc1[nH]c2ccccc2c1C(C[N+](=O)[O-])c1cccs1 (stereo unspecified)
EC50 [6]: > 195 µM (not active)

COC(=O)CCCC1=CC2=CC(=O)C(C)(OC(=O)C3CCCC3)C(=O)C2=CO1 (stereo unspecified)
EC50 [3]: 23.3 µM (active) | EC50 [4]: 57.7 µM (inconclusive)

CCCCN1C(=O)C(CC(=O)NCC)S/C1=N/c1ccccc1 (stereo unspecified)
EC50 [6]: > 195 µM (not active)

CC1=C(C#N)C(=O)N(C)C(=O)/C1=C\NNc1ccc(F)cc1
EC50 [3]: > 300 µM (not active) | EC50 [4]: > 300 µM (not active)

CCN(CC)S(=O)(=O)c1cccc(NC(=O)CCNC(=O)NC23CC4CC(CC(C4)C2)C3)c1
EC50 [6]: > 195 µM (not active)

CSc1cccc(NC(=O)N2CCc3ccc(NC(=O)c4ccccn4)cc3C2)c1
CC50 [5]: 14.4 µM (active)

Cc1ccc(N2CC(C(=O)Nc3nc4ccc(S(C)(=O)=O)cc4s3)CC2=O)cc1 (stereo unspecified)
EC50 [6]: > 195 µM (not active)

Cc1cccc(C)c1OCC(=O)NCc1ccccc1
EC50 [6]: > 195 µM (not active)

COC(=O)CNc1cccc(C(F)(F)F)c1
EC50 [3]: > 300 µM (not active) | EC50 [4]: > 300 µM (not active)

Cc1c(-c2nc[nH]n2)sc(C#N)c1-c1ccccc1
CC50 [5]: 24.4 µM (active) | EC50 [1]: > 53 µM (inactive) | IC50 [2]: > 47.1 µM (inactive)

O=C(NC1(C(F)(F)F)C(=O)Nc2c1c(=O)[nH]c(=O)n2Cc1ccccc1)c1ccc(Cl)cc1 (stereo unspecified)
EC50 [1]: > 53 µM (inactive) | IC50 [2]: > 47.1 µM (inactive)

CC(N1CCOC1=O)S(=O)(=O)c1ccccc1 (stereo unspecified)
EC50 [6]: > 195 µM (not active)

Cc1ccc(C(=O)OCn2nnc3ccccc3c2=O)cc1[N+](=O)[O-]
EC50 [1]: > 53 µM (inactive) | IC50 [2]: > 47.1 µM (inactive)

CC1=Nc2ccc(C)c3nc(C)cc(c23)N1c1ccc(C)cc1
CC50 [5]: > 50 µM (active) | EC50 [6]: > 195 µM (not active)

COc1ccc(CN(CCCN2CCOCC2)C(=O)Nc2cccc(Cl)c2)cc1OC
EC50 [6]: > 195 µM (not active)

Cc1n[nH]c(-c2ccc(OCc3cnn(-c4ccccc4)c3)c(C)c2O)c1Oc1ccccc1
CC50 [5]: 14.6 µM (active)

COc1ccc(/C(C)=N/Nc2nc3ccccc3nc2C)cc1OC
EC50 [3]: 5.07 µM (inconclusive) | EC50 [4]: 66.5 µM (inconclusive)

CSc1ccc(/C=N/n2nnnc2N)cc1
CC50 [5]: 48.5 µM (active)

N#C/C(=C\Nc1ccc2c[nH]nc2c1)c1nc(-c2ccccc2)cs1
EC50 [6]: > 195 µM (not active)

CC(=O)c1c(O)cc(O)cc1CC(=O)O
EC50 [3]: > 300 µM (inconclusive) | EC50 [4]: 190 µM (inconclusive)

COc1ccc(S(=O)(=O)N(C)CC(=O)NC2CCCCC2)cc1OC
EC50 [1]: > 53 µM (inactive) | IC50 [2]: > 47.1 µM (inactive)

CC1CN(S(=O)(=O)c2ccc(C(=O)N3CCc4ccccc43)cc2)CC(C)O1 (stereo unspecified)
EC50 [1]: > 53 µM (inactive) | IC50 [2]: > 47.1 µM (inactive)

Cc1ccccc1OCCNC(=O)c1ccc2ccccc2n1
CC50 [5]: 24.5 µM (active)

CC(=O)Nc1ccc(S(=O)(=O)NCc2csc(C)n2)cc1
EC50 [6]: > 195 µM (not active)

COc1ccc(CCNC(=O)CN(c2ccc(OC)c(OC)c2)S(C)(=O)=O)cc1OC
EC50 [6]: > 195 µM (not active)

N#Cc1ccc(CN2CCN(CC(=O)NCCc3ccc(Cl)cc3Cl)CC2)cc1
CC50 [5]: 22.9 µM (active)

COc1ccccc1-c1nnc(SC2CCc3ccccc3NC2=O)s1 (stereo unspecified)
EC50 [6]: > 195 µM (not active)
